Measurements taken from the supplement of paper PMC10307832.

How the values were obtained:
Test in all cases: relative viability (nuclei count vs DMSO), 5 days (fraction); higher = more cells survive
NCI-H2347 = tested on: NCI-H2347
Procedure, shortened: (§1)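 Lung cancer cell lines, seeded in 1536-well plates, were treated the following day by pin tool with a single drug or with five library-drug doses (not always all listed) in √10 steps on top of a fixed anchor-drug dose. Cells were fixed and nuclei stained in one step after 5 days, and nuclei were counted. Relative viability is the nuclei count for treated wells divided by that for vehicle wells, reported as medians of duplicate plates.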

COR-L23 = tested on: COR-L23
Procedure, shortened: as §1

HOP-62 = tested on: HOP-62
Procedure, shortened: as §1

NCI-H1993 = tested on: NCI-H1993
Procedure, shortened: as §1

NCI-H647 = tested on: NCI-H647
Procedure, shortened: as §1

SK-MES-1 = tested on: SK-MES-1
Procedure, shortened: as §1

NCI-H1792 = tested on: NCI-H1792
Procedure, shortened: as §1

NCI-H522 = tested on: NCI-H522
Procedure, shortened: as §1

NCI-H1734 = tested on: NCI-H1734
Procedure, shortened: as §1

COR-L 105 = tested on: COR-L 105
Procedure, shortened: as §1

NCI-H2228 = tested on: NCI-H2228
Procedure, shortened: as §1

UMC-11 = tested on: UMC-11
Procedure, shortened: as §1

NCI-H1395 = tested on: NCI-H1395
Procedure, shortened: as §1

HARA = tested on: HARA
Procedure, shortened: as §1

NCI-H1755 = tested on: NCI-H1755
Procedure, shortened: as §1

NCI-H838 = tested on: NCI-H838
Procedure, shortened: as §1

NCI-H1793 = tested on: NCI-H1793
Procedure, shortened: as §1

NCI-H2170 = tested on: NCI-H2170
Procedure, shortened: as §1

NCI-H358 = tested on: NCI-H358
Procedure, shortened: as §1

HCC-15 = tested on: HCC-15
Procedure, shortened: as §1

NCI-H2009 = tested on: NCI-H2009
Procedure, shortened: as §1

NCI-H1355 = tested on: NCI-H1355
Procedure, shortened: as §1

COc1cc2nccc(Oc3ccc(NC(=O)Nc4cc(C)on4)c(Cl)c3)c2cc1OC [Tivozanib] + CC(=O)c1c(C)c2cnc(Nc3ccc(N4CCNCC4)cn3)nc2n(C2CCCC2)c1=O [Palbociclib] (partner 0.5 µM)
relative viability (NCI-H2347; first compound 0.005 µM): 0.48 | relative viability (NCI-H2347; first compound 0.01581 µM): 0.424 | relative viability (NCI-H2347; first compound 0.05 µM): 0.462 | relative viability (NCI-H2347; first compound 0.1581 µM): 0.478 | relative viability (NCI-H2347; first compound 0.5 µM): 0.422 | relative viability (COR-L23; first compound 0.005 µM): 0.246 | relative viability (COR-L23; first compound 0.01581 µM): 0.294 | relative viability (COR-L23; first compound 0.05 µM): 0.319 | relative viability (COR-L23; first compound 0.1581 µM): 0.282 | relative viability (COR-L23; first compound 0.5 µM): 0.213 | relative viability (HOP-62; first compound 0.005 µM): 0.499 | relative viability (HOP-62; first compound 0.01581 µM): 0.419 | relative viability (HOP-62; first compound 0.05 µM): 0.495 | relative viability (HOP-62; first compound 0.1581 µM): 0.438 | relative viability (HOP-62; first compound 0.5 µM): 0.397 | relative viability (NCI-H1993; first compound 0.005 µM): 0.551 | relative viability (NCI-H1993; first compound 0.01581 µM): 0.641 | relative viability (NCI-H1993; first compound 0.05 µM): 0.638 | relative viability (NCI-H1993; first compound 0.1581 µM): 0.537 | relative viability (NCI-H1993; first compound 0.5 µM): 0.617 | relative viability (NCI-H647; first compound 0.005 µM): 0.396 | relative viability (NCI-H647; first compound 0.01581 µM): 0.391 | relative viability (NCI-H647; first compound 0.05 µM): 0.3 | relative viability (NCI-H647; first compound 0.1581 µM): 0.32 | relative viability (NCI-H647; first compound 0.5 µM): 0.35 | relative viability (SK-MES-1; first compound 0.005 µM): 0.306 | relative viability (SK-MES-1; first compound 0.01581 µM): 0.345 | relative viability (SK-MES-1; first compound 0.05 µM): 0.365 | relative viability (SK-MES-1; first compound 0.1581 µM): 0.326 | relative viability (SK-MES-1; first compound 0.5 µM): 0.376 | relative viability (NCI-H1792; first compound 0.005 µM): 0.686 | relative viability (NCI-H1792; first compound 0.01581 µM): 0.643 | relative viability (NCI-H1792; first compound 0.05 µM): 0.553 | relative viability (NCI-H1792; first compound 0.1581 µM): 0.698 | relative viability (NCI-H1792; first compound 0.5 µM): 0.747 | relative viability (NCI-H522; first compound 0.005 µM): 1 | relative viability (NCI-H522; first compound 0.01581 µM): 0.849 | relative viability (NCI-H522; first compound 0.05 µM): 0.889 | relative viability (NCI-H522; first compound 0.1581 µM): 0.894 | relative viability (NCI-H522; first compound 0.5 µM): 1.21 | relative viability (NCI-H1734; first compound 0.005 µM): 0.313 | relative viability (NCI-H1734; first compound 0.01581 µM): 0.34 | relative viability (NCI-H1734; first compound 0.05 µM): 0.335 | relative viability (NCI-H1734; first compound 0.1581 µM): 0.336 | relative viability (NCI-H1734; first compound 0.5 µM): 0.345 | relative viability (COR-L 105; first compound 0.005 µM): 0.411 | relative viability (COR-L 105; first compound 0.01581 µM): 0.436 | relative viability (COR-L 105; first compound 0.05 µM): 0.433 | relative viability (COR-L 105; first compound 0.1581 µM): 0.404 | relative viability (COR-L 105; first compound 0.5 µM): 0.415 | relative viability (NCI-H2228; first compound 0.005 µM): 0.688 | relative viability (NCI-H2228; first compound 0.01581 µM): 0.68 | relative viability (NCI-H2228; first compound 0.05 µM): 0.883 | relative viability (NCI-H2228; first compound 0.1581 µM): 0.321 | relative viability (NCI-H2228; first compound 0.5 µM): 0.643 | relative viability (UMC-11; first compound 0.005 µM): 0.288 | relative viability (UMC-11; first compound 0.01581 µM): 0.327 | relative viability (UMC-11; first compound 0.05 µM): 0.32 | relative viability (UMC-11; first compound 0.1581 µM): 0.304 | relative viability (UMC-11; first compound 0.5 µM): 0.307 | relative viability (NCI-H1395; first compound 0.005 µM): 0.581 | relative viability (NCI-H1395; first compound 0.01581 µM): 0.587 | relative viability (NCI-H1395; first compound 0.05 µM): 0.659 | relative viability (NCI-H1395; first compound 0.1581 µM): 0.55 | relative viability (NCI-H1395; first compound 0.5 µM): 0.509 | relative viability (HARA; first compound 0.005 µM): 0.297 | relative viability (HARA; first compound 0.01581 µM): 0.208 | relative viability (HARA; first compound 0.05 µM): 0.3 | relative viability (HARA; first compound 0.1581 µM): 0.245 | relative viability (HARA; first compound 0.5 µM): 0.272 | relative viability (NCI-H1755; first compound 0.005 µM): 0.437 | relative viability (NCI-H1755; first compound 0.01581 µM): 0.467 | relative viability (NCI-H1755; first compound 0.05 µM): 0.442 | relative viability (NCI-H1755; first compound 0.1581 µM): 0.421 | relative viability (NCI-H1755; first compound 0.5 µM): 0.403 | relative viability (NCI-H838; first compound 0.005 µM): 0.227 | relative viability (NCI-H838; first compound 0.01581 µM): 0.227 | relative viability (NCI-H838; first compound 0.05 µM): 0.211 | relative viability (NCI-H838; first compound 0.1581 µM): 0.2 | relative viability (NCI-H838; first compound 0.5 µM): 0.229 | relative viability (NCI-H1793; first compound 0.005 µM): 0.309 | relative viability (NCI-H1793; first compound 0.01581 µM): 0.343 | relative viability (NCI-H1793; first compound 0.05 µM): 0.354 | relative viability (NCI-H1793; first compound 0.5 µM): 0.422 | relative viability (NCI-H2170; first compound 0.005 µM): 0.398 | relative viability (NCI-H2170; first compound 0.01581 µM): 0.392 | relative viability (NCI-H2170; first compound 0.05 µM): 0.414 | relative viability (NCI-H2170; first compound 0.5 µM): 0.388 | relative viability (NCI-H358; first compound 0.005 µM): 0.123 | relative viability (NCI-H358; first compound 0.01581 µM): 0.165 | relative viability (NCI-H358; first compound 0.05 µM): 0.122 | relative viability (NCI-H358; first compound 0.1581 µM): 0.133 | relative viability (NCI-H358; first compound 0.5 µM): 0.157 | relative viability (HCC-15; first compound 0.005 µM): 0.689 | relative viability (HCC-15; first compound 0.01581 µM): 0.768 | relative viability (HCC-15; first compound 0.05 µM): 0.767 | relative viability (HCC-15; first compound 0.1581 µM): 0.734 | relative viability (HCC-15; first compound 0.5 µM): 0.672 | relative viability (NCI-H2009; first compound 0.005 µM): 0.212 | relative viability (NCI-H2009; first compound 0.01581 µM): 0.209 | relative viability (NCI-H2009; first compound 0.05 µM): 0.23 | relative viability (NCI-H2009; first compound 0.1581 µM): 0.109 | relative viability (NCI-H2009; first compound 0.5 µM): 0.119 | relative viability (NCI-H1355; first compound 0.005 µM): 0.401 | relative viability (NCI-H1355; first compound 0.01581 µM): 0.447 | relative viability (NCI-H1355; first compound 0.05 µM): 0.445 | relative viability (NCI-H1355; first compound 0.1581 µM): 0.326 | relative viability (NCI-H1355; first compound 0.5 µM): 0.417
